Reference: patent US10703746B2, “Mutant IDH1 inhibitors useful for treating cancer” (THE UNITED STATES OF AMERICA, AS REPRESENTED BY THE …, priority 2014, dated 2020)

Legend:
IDH1 R132H = IDH1 R132H (Homo sapiens, UniProt O75874, R132H); test: IDH1 R132H enzymatic assay (NADPH depletion coupled to diaphorase/resazurin); format: biochemical; conditions: IDH1 R132H enzymatic inhibition, IC50 class
IDH1 R132C = IDH1 R132C (Homo sapiens, UniProt O75874, R132C); test: IDH1 R132C enzymatic assay (NADPH depletion coupled to diaphorase/resazurin); format: biochemical; conditions: IDH1 R132C enzymatic inhibition, IC50 class
Sequence of IDH1 R132C (O75874 whole entry R132C): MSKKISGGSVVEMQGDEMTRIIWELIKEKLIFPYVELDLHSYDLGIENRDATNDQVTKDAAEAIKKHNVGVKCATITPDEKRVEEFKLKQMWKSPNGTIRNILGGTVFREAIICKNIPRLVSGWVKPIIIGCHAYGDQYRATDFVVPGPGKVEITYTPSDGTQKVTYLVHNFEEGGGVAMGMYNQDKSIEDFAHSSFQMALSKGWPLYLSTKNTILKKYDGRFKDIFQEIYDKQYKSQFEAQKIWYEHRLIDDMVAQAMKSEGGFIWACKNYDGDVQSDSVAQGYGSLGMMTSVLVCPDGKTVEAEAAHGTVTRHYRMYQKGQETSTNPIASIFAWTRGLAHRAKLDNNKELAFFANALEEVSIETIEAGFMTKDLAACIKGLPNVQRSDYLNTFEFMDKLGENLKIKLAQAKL
Outline: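 NADPH depletion, read via diaphorase/resazurin coupling, after adding substrate at 0.6 mM α-KG and 0.012 mM NADPH. Beforehand, 0.00032 mg/mL enzyme sat with compound 30 min at room temperature in pH 6.5 potassium phosphate buffer with MgCl2, glycerol and BSA.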

Sequence of IDH1 R132H (O75874 whole entry R132H): as the sequence (O75874 whole entry R132C) above, with C132H counted along it

`COc1ccc(OC)c(-n2c3c(cc(-c4cccc(-c5ccc(Cl)cc5)n4)c2=O)C(=O)CC(C)(C)C3)c1` [Compound 284] showed an IC50 (IDH1 R132H) of 5 to 20 µM and an IC50 (IDH1 R132C) of 5 to 20 µM.

In the case of `CCOc1ccc(-c2nc(-c3cc(C(=O)N4CCNCC4)c(CC(C)C)n(-c4c(CC)cccc4CC)c3=O)sc2C)cc1` [Compound 285], the IC50 (IDH1 R132H) is reported as < 0.3 µM and the IC50 (IDH1 R132C) is reported as < 0.3 µM.

For `CC(=O)c1ccccc1-n1c2c(cc(-c3nc(-c4ccc(Cl)cc4)cs3)c1=O)C(=O)CC(C)(C)C2` [Compound 286], the IC50 (IDH1 R132H) was 1 to 5 µM and the IC50 (IDH1 R132C) was 1 to 5 µM.

`COc1ccc(OC)c(-n2c3c(cc(-c4nnn(-c5ccc(Cl)cc5)n4)c2=O)C(=O)CC(C)(C)C3)c1` [Compound 287] was tested, and the IC50 (IDH1 R132H) was > 20 µM and the IC50 (IDH1 R132C) was 1 to 5 µM.

`Cc1c(N)cccc1-n1c2c(cc(-c3nc(-c4ccc(Cl)cc4)cs3)c1=O)C(=O)CC(C)(C)C2` [Compound 288] showed an IC50 (IDH1 R132H) of 1 to 5 µM and an IC50 (IDH1 R132C) of 1 to 5 µM.

With `COc1ccc(OC)c(-n2c(=O)c(-c3nc(-c4ccc(Cl)cc4)cs3)cc3c(OC)cncc32)c1` [Compound 289] the IC50 (IDH1 R132H) was > 20 µM and the IC50 (IDH1 R132C) was 5 to 20 µM.

Work on `COc1ccc(OC)c(-n2c3c(cc(-c4c[nH]c(-c5ccccc5)n4)c2=O)C(=O)CC(C)(C)C3)c1` [Compound 290] yielded an IC50 (IDH1 R132H) of 1 to 5 µM and an IC50 (IDH1 R132C) of 1 to 5 µM.

`COc1ccc(OC)c(-n2c3c(cc(-c4nc(-c5ccc(Cl)cc5)c[nH]4)c2=O)C(=O)CC(C)(C)C3)c1` [Compound 291] showed an IC50 (IDH1 R132H) of 1 to 5 µM and an IC50 (IDH1 R132C) of 1 to 5 µM.

Molecule `CCc1cccc(CC)c1-n1c2c(cc(-c3nc(-c4ccc(C)cn4)c(C)s3)c1=O)C(=O)CC(C)(C)C2` [Compound 292] has an IC50 (IDH1 R132H) of 1 to 5 µM and an IC50 (IDH1 R132C) of 1 to 5 µM.

With `CCc1cccc(CC)c1-n1c(CC)c(C(=O)NC)cc(-c2nc(-c3ccc(Cl)cc3)cs2)c1=O` [Compound 293] the IC50 (IDH1 R132H) was 0.3 to 1 µM and the IC50 (IDH1 R132C) was 0.3 to 1 µM.

For `COc1ccc(OC)c(-n2c3c(cc(-c4cc(-c5ccccc5)[nH]n4)c2=O)C(=O)CC(C)(C)C3)c1` [Compound 294], the IC50 (IDH1 R132H) was > 20 µM and the IC50 (IDH1 R132C) was 5 to 20 µM.

Molecule `CC1(C)CC(=O)c2cc(-c3nc(-c4ccc(Cl)cc4)cs3)c(=O)n(-c3ccccc3-c3ccccc3)c2C1` [Compound 295] has an IC50 (IDH1 R132H) of 1 to 5 µM and an IC50 (IDH1 R132C) of 0.3 to 1 µM.

`CCc1cccc(CC)c1-n1c(C)c(C(=O)NC2CCOCC2)cc(-c2nc(-c3ccc(Cl)cc3)cs2)c1=O` [Compound 296] gave an IC50 (IDH1 R132H) of 1 to 5 µM and an IC50 (IDH1 R132C) of 1 to 5 µM.

For `CCc1cccc(CC)c1-n1c(CC(C)C)c(C(=O)N2CC(=O)N[C@@H](C(=O)O)C2)cc(-c2nc(-c3ccc(Cl)cc3)cs2)c1=O` [Compound 297], the IC50 (IDH1 R132H) was 0.3 to 1 µM and the IC50 (IDH1 R132C) was 0.3 to 1 µM.

With `CCc1cccc(CC)c1-n1c2c(cc(-c3nc(C4=CCNCC4)c(C)s3)c1=O)C(=O)CC(C)(C)C2` [Compound 298] the IC50 (IDH1 R132H) was > 20 µM and the IC50 (IDH1 R132C) was 5 to 20 µM.

With `CCc1cccc(CC)c1-n1c2c(cc(-c3nc(-c4ccc(C)nc4)c(C)s3)c1=O)C(=O)CC(C)(C)C2` [Compound 299] the IC50 (IDH1 R132H) was 1 to 5 µM and the IC50 (IDH1 R132C) was 1 to 5 µM.

`CCc1cccc(CC)c1-n1c(C)c(C(=O)N2CCNCC2)cc(-c2nc(-c3ccc(Cl)cc3)cs2)c1=O` [Compound 300] was tested, and the IC50 (IDH1 R132H) was < 0.3 µM and the IC50 (IDH1 R132C) was 0.3 to 1 µM.

Work on `CC1(C)CC(=O)c2cc(-c3nc(-c4ccc(Cl)cc4)cs3)c(=O)n(-c3ccccc3N)c2C1` [Compound 301] yielded an IC50 (IDH1 R132H) of 1 to 5 µM and an IC50 (IDH1 R132C) of 1 to 5 µM.

`CCc1cccc(CC)c1-n1c(C)c(C(=O)NC2CCNCC2)cc(-c2nc(-c3ccc(Cl)cc3)cs2)c1=O` [Compound 302] was tested, and the IC50 (IDH1 R132H) was 0.3 to 1 µM and the IC50 (IDH1 R132C) was 0.3 to 1 µM.

Molecule `CCc1cccc(CC)c1-n1c(C)c(C(=O)NCCN)cc(-c2nc(-c3ccc(Cl)cc3)cs2)c1=O` [Compound 303] has an IC50 (IDH1 R132H) of 0.3 to 1 µM and an IC50 (IDH1 R132C) of 1 to 5 µM.

`CCc1cccc(CC)c1-n1c(C)c(C(=O)NCCCNC)cc(-c2nc(-c3ccc(Cl)cc3)cs2)c1=O` [Compound 304] was tested, and the IC50 (IDH1 R132H) was 1 to 5 µM and the IC50 (IDH1 R132C) was 0.3 to 1 µM.

`CCc1cccc(CC)c1-n1c(CC(C)C)c(C(=O)N2CCNC(C)C2)cc(-c2nc(-c3ccc(Cl)cc3)cs2)c1=O` (stereo not drawn) [Compound 305] was tested, and the IC50 (IDH1 R132H) was 0.3 to 1 µM and the IC50 (IDH1 R132C) was < 0.3 µM.

Work on `COc1ccc(OC)c(-n2c3c(cc(-c4nc(-c5ccc(Cl)cc5)no4)c2=O)C(=O)CC(C)(C)C3)c1` [Compound 306] yielded an IC50 (IDH1 R132H) of 5 to 20 µM and an IC50 (IDH1 R132C) of 5 to 20 µM.

Molecule `CCc1cccc(CC)c1-n1c(CC(C)C)c(C(=O)N2CCNCC2)cc(-c2nc(-c3ccc(C(N)=O)cc3)c(C)s2)c1=O` [Compound 307] has an IC50 (IDH1 R132H) of 5 to 20 µM and an IC50 (IDH1 R132C) of 5 to 20 µM.

`CCc1cccc(CC)c1-n1c(C)c(C(=O)N(C)CCO)cc(-c2nc(-c3ccc(Cl)cc3)cs2)c1=O` [Compound 308] gave an IC50 (IDH1 R132H) of 1 to 5 µM and an IC50 (IDH1 R132C) of 1 to 5 µM.

With `CCc1cccc(CC)c1-n1c2c(cc(C(=O)N(C)Cc3ccc(Cl)cc3)c1=O)C(=O)CC(C)(C)C2` [Compound 309] the IC50 (IDH1 R132H) was 5 to 20 µM and the IC50 (IDH1 R132C) was 5 to 20 µM.

`CCc1cccc(CC)c1-n1c(CC(C)C)c(C(=O)N2CCNCC2)cc(-c2cccc(-c3ccc(Cl)cc3)n2)c1=O` [Compound 310] gave an IC50 (IDH1 R132H) of 1 to 5 µM and an IC50 (IDH1 R132C) of 1 to 5 µM.
